According to patent US20090209605A1, “NEMATICIDAL COMPOSITIONS” (Devgen N.V., priority 2004, published 2009):

What was measured:
Format in all cases: in vivo
[1] = test system: Meloidogyne incognita nematodes; test: Pot Assay 1: Meloidogyne infection of potato, egg masses/galls on roots; details: potato in pot, week 8 after inoculation
Procedure: 500 ml clay pots were filled with 400 ml of silver sand. One tuber of potato ( Solanum tuberosum cv. Bintje) was planted in the sand. After 2 to 3 weeks incubation, the potato plant was sufficiently developed to be inoculated.
Plants were grown under the usual standard greenhouse conditions at 14° C.-18° C., with 16 hours light and 8 hours dark and 80-90% relative humidity. The pots were watered using individual drippers and fertilizers were added under the form of macro- and micro nutrients according to plant growth requirements. When needed, the plants were sprayed with fungicides and insecticides.
The compounds as described herein were added one day before inoculation. The compounds were dissolved in a 20 ml DMSO-solution and spread over the sand surface. The final concentration is calculated under the assumption that the compound is diffused entirely in the pot. This process occurred during two days at the normal greenhouse conditions described above.
After compound incubation, approximately 1500 juveniles of Meloidogyne incognita nematodes were added to the pots.
The pots were incubated at the described greenhouse conditions until nematode development was completed. At week 8 after inoculation the number of galls formed on the roots was counted after washing off the sandy substrate. Also the effect of the compound on the plant development was recorded.
Every compound was tested in three replicates. Positive control plants were treated with different concentrations of aldicarb, a known nematicide. Negative controls involved 12 replicates of double negative controls (no compound, no nematode), 12 replicates of single negative controls (no compound, no DMSO, with nematode), 24 replicates of DMSO controls (DMSO solution, with nematode).
As assessment of the root development was taken into account.

[2] = test system: Meloidogyne incognita; test: Root infestation on agar plate: root knot count on potato microplant roots; details: 60 μM in agar, galls counted 5 weeks after inoculation, four replicates
Procedure: 9 cm petri dishes were filled with a 15 ml agar. One stem cutting of a potato microplant (Solanum tuberosum cv. Desirée) was placed on top of the agar layer. After 2 to 3 weeks of incubation at 20° C., the root system was sufficiently developed to be inoculated.
The test compounds (see Table 1) were added 2 days before inoculation by way of spreading a 2 ml DMSO-solution with the compound over the agar and allowing the compound to diffuse in the agar during two days at constant temperature of 20° C. During incubation, the plates are protected from light in a dark incubator. The resulting concentration of each compound in each agar plate was 60 μM.
After incubation, approximately 400 axenic juveniles of Meloidogyne incognita species were added to the plate.
The plates were incubated in the dark at a constant temperature of 20° C. and 5 weeks after inoculation the number of galls formed on the roots were determined by counting. Also any toxic effect of the test compounds on the roots was recorded. 8 weeks after inoculation the plates were stored at low temperature.
Each compound was tested in four replicates. Positive controls were treated with different concentrations of Aldicarb, a known nematicide. Negative controls included 5 replicates of double negative controls (no compound, no nematode), 5 replicates of single negative controls (no compound, with nematode) and 5 replicates of DMSO controls (DMSO solution, with nematode).

[3] = test system: Meloidogyne nematodes; test: Pot Assay 2: Meloidogyne infection of tomato, % infestation of roots; details: tomato in infested soil
Procedure: The soil used in this assay originated from a plot, heavily infested with Meloidogyne nematodes. Part of this soil was sterilized by autoclaving and was used as negative control. Sandy soil, which was not infested with nematodes, was pursued from a commercial source.
Plastic seedling trays with wells of 60 ml capacity were filled with about 40 ml of soil per well. 5 ml of water per well was used for irrigation.
Compounds as described herein were tested in 4 different rates and with 12 replicates for each concentration. The compounds as described herein were stored as dry films of 4 different concentrations. The day of the application of the compounds, all the dry films were dissolved in 60 ml water and poured into the 12 replicate wells: 5 ml per well. Every tray of 12 wells was identified with a label, indicating compound and concentration used. The 4 final rates in the soil of the tested compound were approximately 0.05 mg, 0.20 mg, 1 mg and 5 mg. These amounts translate to field application rates respectively as 30, 120, 600 and 3000 g per hectare.
3-5 days after application of the tested compound, tomato seeds (cv. Rio Grande) were sown in the wells by hand, at about 2 cm deep. A light cover of vermiculite on the surface was used to avoid dehydration. Plants were irrigated by micro-nebulization 3-4 times per week at a rate of 3 L/m^2, weeded by hand and treated with fertilizers, fungicide and insecticides when needed.
Their resistance against nematode infection was monitored and the efficacy of compounds described herein as a nematicide was measured. Furthermore the phytotoxicity of the test compounds was evaluated.
Efficacy of the compounds described herein as nematicide was measured by giving the roots a percentage of infestation measured as follows. Plants were grown to reach good development of the roots, which corresponds to plants grown to about 10 cm high at about one month after emergence. After removal of the soil from the roots by rinsing with water, the roots were visually inspected and root galls were counted on 4 plants of the set of 12 replicate plants.
Positive control plants were treated with a 10 micromolar concentration of oxamyl (Vydate, 10% SL; the rate of 10 micromolar corresponds to a commercial rate of 20 l/ha), a known nematicide. Negative controls involved double negative controls (no compound, sterile soil), and single negative controls (no compound, with nematode infested soil).

[4] = test system: tomato (cv. Rio Grande); test: Pot Assay 2: root development (vigor of roots) of tomato; details: visual value 0 to 10 (10 equal to control)
Procedure: Phytotoxicity of compounds as described herein when used as a nematicide, was measured as follows. […] At that moment, plant emergence was assessed for the plants treated with any of the compounds as described herein, by counting the number of plants per compound-concentration.
Vigor of roots was also assessed once the plants are well established so as not to loose plants. To assess vigor of the plants or roots, a visual value ranging from 0 to 10 (0 no vigor, 10 equal to control) was scored per compound-concentration.

| SMILES | number of egg masses (galls) on roots, Replicate 3 ([1]; 10 μM) | number of egg masses (galls) on roots, Replicate 1 ([1]; 50 μM) | number of egg masses (galls) on roots, Replicate 3 ([1]; 50 μM) | Root knot count, average of the replicate counts [2] | number of egg masses (galls) on roots, Replicate 2 ([1]; 50 μM) | % INF. (% Infestation) ([3]; RATE 0.05 mg) [%] | % INF. (% Infestation) ([3]; RATE 0.2 mg) [%] | % INF. (% Infestation) ([3]; RATE 1 mg) [%] | % INF. (% Infestation) ([3]; RATE 5 mg) [%] | ROOT DEV. ([4]; RATE 0.05 mg) | ROOT DEV. ([4]; RATE 0.2 mg) | ROOT DEV. ([4]; RATE 1 mg) | ROOT DEV. ([4]; RATE 5 mg) |
| --- | --- | --- | --- | --- | --- | --- | --- | --- | --- | --- | --- | --- | --- |
| CC(C)N(C(=O)COc1nnc(C(F)(F)F)s1)c1ccc(F)cc1 [XIII] | 40 | 60 | 30 | 9.5 | – | – | – | – | – | – | – | – | – |
| CC(C)(C)N(NC(=O)c1ccc(Cl)cc1)C(=O)c1ccccc1 [XIX] | 80 | 60 | 20 | 10.75 | 45 | – | – | – | – | – | – | – | – |
| Clc1nc(Cl)nc(Nc2ccccc2Cl)n1 [XLII] | – | – | – | 17.25 | – | 3.8 | 0.0 | 0.0 | 0.0 | 6.8 | 6.9 | 8.2 | 8.1 |
| CC(C)(C)C(O)C(Oc1ccc(-c2ccccc2)cc1)n1cncn1 (stereo not shown) [XLVIII] | – | – | – | 12.75 | – | 0.0 | 1.3 | 3.8 | 1.3 | 7.5 | 7.4 | 7.2 | 7.8 |
| Cc1cc(C)nc(Nc2ccccc2)n1 [XLVI] | – | – | – | 18.25 | – | – | – | – | – | – | – | – | – |
| Nc1nc(N)nc(NC2CC2)n1 [XLV] | – | – | – | 19.5 | – | – | – | – | – | – | – | – | – |
| O=[N+]([O-])N=C1NCCN1Cc1ccc(Cl)nc1 [XXII] | – | – | – | 12 | – | – | – | – | – | – | – | – | – |
| C#CCOC(=O)/C=C(C)/C=C/CC(C)CCCC(C)C (stereo not shown) [XXVIII] | – | – | – | 8.5 | – | 2.5 | 1.3 | – | – | 7.4 | 7.8 | – | – |
| CS(=O)(=O)c1cc(C(F)(F)F)ccc1C(=O)c1cnoc1C1CC1 [XXVI] | – | – | – | 8.75 | – | 1.3 | 3.8 | 0.0 | – | 7.4 | 6.6 | 7.8 | – |
| CCOc1ccc([Si](C)(C)CCCc2ccc(F)c(Oc3ccccc3)c2)cc1 [XXXIII] | – | – | – | 17.5 | – | – | – | – | – | – | – | – | – |
| CCCCOCCOCCOCc1cc2c(cc1CCC)OCO2 [XXXII] | – | – | – | 19.25 | – | 0.0 | 0.0 | 1.3 | 2.5 | 6.5 | 7.6 | 7.6 | 6.7 |
| CCc1nn(C)c(C(=O)NCc2ccc(C(C)(C)C)cc2)c1Cl [XXXVIII] | – | 40 | 1 | 16.5 | 70 | – | – | – | – | – | – | – | – |
| COc1ccc(/C(=C/C(=O)N2CCOCC2)c2ccc(Cl)cc2)cc1OC [X] | – | – | – | 10.5 | – | 5.0 | 1.3 | – | – | 6.8 | 7.9 | – | – |
